Laboratory results from publication PMC3914206.

Experiments:
Assay type in all cases: binding
Settings in all cases: Compound Concentration 10 µM
panel of 442 kinases [1] = biological target: T1, panel of 442 kinases (Homo sapiens, UniProt Q9Y2K2)
T1 construct: purchased KINOMEscan
Source text: (§1) We assessed the selectivity of members of this scaffold using the KINOMEscan methodology across a near comprehensive panel of 442 kinases [[18,27]].

panel of 442 kinases [2] = biological target: T2, panel of 442 kinases (Homo sapiens, UniProt P42336, E542K)
T2 construct: purchased KINOMEscan
T2 sequence (P42336 whole entry E542K): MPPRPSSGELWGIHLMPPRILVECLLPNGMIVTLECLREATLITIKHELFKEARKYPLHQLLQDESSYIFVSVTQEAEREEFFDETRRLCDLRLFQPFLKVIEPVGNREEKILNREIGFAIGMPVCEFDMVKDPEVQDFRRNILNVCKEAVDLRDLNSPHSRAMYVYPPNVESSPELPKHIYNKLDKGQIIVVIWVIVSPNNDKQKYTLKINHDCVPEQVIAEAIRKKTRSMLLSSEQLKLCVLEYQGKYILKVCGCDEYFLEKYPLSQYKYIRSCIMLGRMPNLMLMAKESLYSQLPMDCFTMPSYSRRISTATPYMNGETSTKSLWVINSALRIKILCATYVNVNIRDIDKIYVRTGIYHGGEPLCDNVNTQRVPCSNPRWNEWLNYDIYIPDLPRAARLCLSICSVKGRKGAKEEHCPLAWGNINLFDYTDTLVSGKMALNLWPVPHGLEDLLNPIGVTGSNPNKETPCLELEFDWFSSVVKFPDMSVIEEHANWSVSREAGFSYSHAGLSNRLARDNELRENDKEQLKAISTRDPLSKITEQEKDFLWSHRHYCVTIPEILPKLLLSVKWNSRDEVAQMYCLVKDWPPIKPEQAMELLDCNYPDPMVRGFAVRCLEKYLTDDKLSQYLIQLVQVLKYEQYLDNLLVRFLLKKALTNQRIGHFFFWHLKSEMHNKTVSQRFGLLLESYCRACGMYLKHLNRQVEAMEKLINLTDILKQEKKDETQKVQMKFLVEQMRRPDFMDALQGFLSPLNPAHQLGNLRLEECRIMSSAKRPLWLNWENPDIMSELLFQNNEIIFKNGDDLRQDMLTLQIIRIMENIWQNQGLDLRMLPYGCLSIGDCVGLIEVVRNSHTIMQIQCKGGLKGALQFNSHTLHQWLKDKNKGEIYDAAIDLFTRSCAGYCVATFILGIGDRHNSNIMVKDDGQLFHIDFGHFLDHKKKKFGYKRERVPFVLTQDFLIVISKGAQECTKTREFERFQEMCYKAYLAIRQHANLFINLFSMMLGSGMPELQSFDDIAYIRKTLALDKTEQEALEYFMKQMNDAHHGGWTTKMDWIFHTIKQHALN
Source text: as §1

panel of 442 kinases [3] = biological target: T3, panel of 442 kinases (Homo sapiens, UniProt P36896)
T3 construct: purchased KINOMEscan
T3 sequence (P36896 24-505): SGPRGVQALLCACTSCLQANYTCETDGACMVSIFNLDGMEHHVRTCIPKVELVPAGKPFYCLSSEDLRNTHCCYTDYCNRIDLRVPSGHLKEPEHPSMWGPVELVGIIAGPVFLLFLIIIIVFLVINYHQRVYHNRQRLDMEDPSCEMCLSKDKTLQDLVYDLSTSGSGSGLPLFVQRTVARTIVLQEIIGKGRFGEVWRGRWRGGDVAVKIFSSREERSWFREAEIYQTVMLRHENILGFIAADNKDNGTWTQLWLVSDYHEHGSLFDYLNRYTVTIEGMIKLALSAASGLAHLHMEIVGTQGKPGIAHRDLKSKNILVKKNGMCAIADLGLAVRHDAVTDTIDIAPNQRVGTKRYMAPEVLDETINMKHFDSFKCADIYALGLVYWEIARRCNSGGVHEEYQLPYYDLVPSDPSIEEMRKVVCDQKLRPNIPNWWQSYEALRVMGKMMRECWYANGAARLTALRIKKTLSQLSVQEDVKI
Source text: as §1

T1 sequence (Q9Y2K2 whole entry): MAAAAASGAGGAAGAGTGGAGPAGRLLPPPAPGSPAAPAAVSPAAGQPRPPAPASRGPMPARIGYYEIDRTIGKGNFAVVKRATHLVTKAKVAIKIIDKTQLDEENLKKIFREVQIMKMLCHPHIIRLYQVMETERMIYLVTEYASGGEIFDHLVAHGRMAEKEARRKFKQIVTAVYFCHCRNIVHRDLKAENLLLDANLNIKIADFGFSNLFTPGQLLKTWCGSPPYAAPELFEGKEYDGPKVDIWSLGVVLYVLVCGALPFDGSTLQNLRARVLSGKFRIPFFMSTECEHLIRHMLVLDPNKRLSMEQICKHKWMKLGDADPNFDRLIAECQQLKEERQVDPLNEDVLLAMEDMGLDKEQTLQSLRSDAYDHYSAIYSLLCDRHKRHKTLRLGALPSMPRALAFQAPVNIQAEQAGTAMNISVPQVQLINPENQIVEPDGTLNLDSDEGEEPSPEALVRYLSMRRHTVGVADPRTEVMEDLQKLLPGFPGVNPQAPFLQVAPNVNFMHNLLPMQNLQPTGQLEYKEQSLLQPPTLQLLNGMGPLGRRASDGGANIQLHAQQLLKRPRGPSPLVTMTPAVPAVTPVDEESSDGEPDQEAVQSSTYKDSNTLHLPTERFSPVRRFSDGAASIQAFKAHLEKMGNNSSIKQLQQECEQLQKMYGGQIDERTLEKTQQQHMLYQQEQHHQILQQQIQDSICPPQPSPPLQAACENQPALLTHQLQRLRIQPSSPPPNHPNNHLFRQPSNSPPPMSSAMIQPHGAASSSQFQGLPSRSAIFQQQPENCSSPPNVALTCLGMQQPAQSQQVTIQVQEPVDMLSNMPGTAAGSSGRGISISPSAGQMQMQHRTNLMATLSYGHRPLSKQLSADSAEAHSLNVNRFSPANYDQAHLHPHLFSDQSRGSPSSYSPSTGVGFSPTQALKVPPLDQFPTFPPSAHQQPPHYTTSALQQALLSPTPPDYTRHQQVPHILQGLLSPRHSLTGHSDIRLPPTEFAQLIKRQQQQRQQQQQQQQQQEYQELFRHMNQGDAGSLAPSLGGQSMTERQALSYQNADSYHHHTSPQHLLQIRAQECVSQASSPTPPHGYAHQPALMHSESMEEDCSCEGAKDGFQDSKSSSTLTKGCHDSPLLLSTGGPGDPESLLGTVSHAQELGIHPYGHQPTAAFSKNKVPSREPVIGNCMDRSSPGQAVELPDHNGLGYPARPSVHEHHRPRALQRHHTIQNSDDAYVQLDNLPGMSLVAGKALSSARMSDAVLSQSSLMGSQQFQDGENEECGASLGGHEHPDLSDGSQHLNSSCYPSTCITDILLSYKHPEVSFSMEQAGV

SMILES: COc1cc(C(=O)N2CCC(N3CCN(C)CC3)CC2)ccc1Nc1ncc2c(n1)N(C)c1ccccc1C(=O)N2C [15 (LRRK2-IN-1)]
- KINOMEscan: QSK (panel of 442 kinases [1]): 100
- KINOMEscan: PIK3CA(E542K) (panel of 442 kinases [2]): 77
- KINOMEscan: ACVR1B (panel of 442 kinases [3]): 100

SMILES: COc1cc(C(=O)N2CCC(N3CCN(C)CC3)CC2)ccc1Nc1ncc2c(n1)N(C1CCCC1)c1ccccc1C(=O)N2C [Compound 25, 11-cyclopentyl-2-((2-methoxy-4-(4-(4-methylpiperazin-1-yl)piperidine-1-carbonyl)phenyl)amino)-5-methyl-5H-benzo[e]pyrimido[5,4-b][1,4]diazepin-6(11H)-one]
- KINOMEscan: QSK (panel of 442 kinases [1]): 100
- KINOMEscan: PIK3CA(E542K) (panel of 442 kinases [2]): 98
- KINOMEscan: ACVR1B (panel of 442 kinases [3]): 97

SMILES: CCOc1cc(C(=O)N2CCC(N3CCN(C)CC3)CC2)ccc1Nc1ncc2c(n1)N(C1CCCC1)c1ccccc1C(=O)N2C [Compound 26]
- KINOMEscan: QSK (panel of 442 kinases [1]): 100
- KINOMEscan: PIK3CA(E542K) (panel of 442 kinases [2]): 100
- KINOMEscan: ACVR1B (panel of 442 kinases [3]): 100
